Test results taken from patent US10669258B2, “3-sulfonyl-5-aminopyridine-2,4-diol APJ agonists” (BRISTOL-MYERS SQUIBB COMPANY, priority 2016, dated 2020).
Read-outs that look alike come from different tables or passages of the source.

Molecular target: T1, human APJ receptor (Homo sapiens, UniProt P35414)
T1 construct: expressed in transfected cells; host or cells: HEK293
T1 sequence (P35414 1-380): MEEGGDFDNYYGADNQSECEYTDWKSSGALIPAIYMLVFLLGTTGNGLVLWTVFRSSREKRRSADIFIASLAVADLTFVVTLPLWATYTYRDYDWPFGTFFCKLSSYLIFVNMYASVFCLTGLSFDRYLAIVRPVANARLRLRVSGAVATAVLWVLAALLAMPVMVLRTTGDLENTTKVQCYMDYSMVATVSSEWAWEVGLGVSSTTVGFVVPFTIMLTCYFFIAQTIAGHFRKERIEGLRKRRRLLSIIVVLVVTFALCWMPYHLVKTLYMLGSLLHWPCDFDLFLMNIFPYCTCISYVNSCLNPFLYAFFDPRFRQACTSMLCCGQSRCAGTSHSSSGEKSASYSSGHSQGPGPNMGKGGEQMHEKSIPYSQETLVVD
Experiment: Intracellular cAMP accumulation assay (APJ hcAMP, HTRF)
Assay type: cell-based
Conditions: HEK293 cells stably expressing human APJ receptor, inhibition of forskolin-mediated cAMP production, Table 1
Method: Intracellular cAMP Accumulation Assay
HEK293 cells stably expressing human APJ receptor were used to assess the activity of compounds. Cultured cells were detached and resuspended in the cAMP Homogeneous Time-Resolved Fluorescence (HTRF) assay buffer (Cisbio cat; #62AM4PEJ). The assay was performed in 384-well assay plates (Perkin-Elmer; cat #6008289) according to assay protocol provided by the manufacturer. Serial dilutions of a compound together with assay buffer containing […] IBMX and 2 μM forskolin were added to each well containing 5,000 cells and incubated for 30 minutes at room temperature. Subsequently, cAMP D2 reagent was added in the lysis buffer followed by the EuK antibody (Cisbio; cat #62AM4PEJ) and incubated for 60 min. The fluorescence emission ratio was measured using fluorometer. The intracellular cAMP concentrations (compound-stimulated inhibition of forskolin-mediated cAMP production) were calculated by extrapolation from a standard curve using known cAMP concentrations. The EC50 values were obtained by fitting the data to a sigmoidal concentration-response curve with variable slope. The maximal achievable inhibition of forskolin-induced cAMP levels (Ymax) for each compound was expressed as relative percentage of inhibition attained using pyroglutamated apelin-13 ((Pyr1)apelin-13) peptide, which was set to 100%.
The examples disclosed below were tested in the APJ in vitro assays described above and were found having human APJ cyclic AMP (hcAMP) activity. The EC50 value of each compound is presented at the end of the example description.
The biological activity of the exemplified compounds of this invention determined by the assay described above is shown at the end of each example.

[1] = read-out: hAPJ cAMP EC50 Potency range

| SMILES | EC50 [1] [nM] | EC50 (hAPJ cAMP EC50 Potency range) [nM] |
| --- | --- | --- |
| CCCCc1nc(O)c(S(=O)(=O)c2ccc(-c3ccnc(F)c3C)cc2)c(O)c1N1CCCc2ccccc21 [Example 028, 6-butyl-5-(3,4-dihydroquinolin-1(2H)-yl)-3-((4-(2-fluoro-3-methylpyridin-4-yl)phenyl)sulfonyl)pyridine-2,4-diol] | 0.01 to 10 | – |
| CCCCc1nc(O)c(S(=O)(=O)c2ccc(-c3ccnc(F)c3C)cc2)c(O)c1N(C)c1cccc(OC)c1 [Example 029, 6-butyl-3-((4-(2-fluoro-3-methylpyridin-4-yl)phenyl)sulfonyl)-5-((3-methoxyphenyl)(methyl)amino)pyridine-2,4-diol] | 0.01 to 10 | – |
| CCCCc1nc(O)c(S(=O)(=O)c2ccc(-c3ccc(F)nc3C)cc2)c(O)c1N(C)c1cccc(OC)c1 [Example 030, 6-butyl-3-((4-(6-fluoro-2-methylpyridin-3-yl)phenyl)sulfonyl)-5-((3-methoxyphenyl)(methyl)amino)pyridine-2,4-diol] | 10 to 100 | – |
| CCCCc1nc(O)c(S(=O)(=O)c2ccc(-c3ccncc3C)cc2)c(O)c1N(C)c1cccc(OC)c1 [Example 031, 6-butyl-5-((3-methoxyphenyl)(methyl)amino)-3-((4-(3-methylpyridin-4-yl)phenyl)sulfonyl)pyridine-2,4-diol] | 10 to 100 | – |
| CCCCc1nc(O)c(C(=O)N2CC[C@@H](c3ccccc3)C2)c(O)c1N(C)c1ccc(OC)cc1 [Example 036, (S)-(6-butyl-2,4-dihydroxy-5-((4-methoxyphenyl)(methyl)amino)pyridin-3-yl)(3-phenylpyrrolidin-1-yl)methanone] | – | 10 to 100 |
| CCCCc1nc(O)c(S(=O)(=O)c2ccc(-c3ccncc3C)cc2)c(O)c1N(C)c1ccc(OC)cc1 [Example 037, 6-butyl-5-((4-methoxyphenyl)(methyl)amino)-3-((4-(3-methylpyridin-4-yl)phenyl)sulfonyl)pyridine-2,4-diol] | 0.01 to 10 | – |
| CCCCc1nc(O)c(S(=O)(=O)c2ccc(-c3cccnc3C)cc2)c(O)c1N1c2ccccc2CCC1C (centres unmarked) [Example 046, 6-butyl-5-(2-methyl-3,4-dihydroquinolin-1(2H)-yl)-3-((4-(2-methylpyridin-3-yl)phenyl)sulfonyl)pyridine-2,4-diol] | 0.01 to 10 | – |
| CCN(c1ccccc1)c1c(CC2CC2)nc(O)c(S(=O)(=O)c2ccc(-c3cccnc3C)cc2)c1O [Example 050, 6-(cyclopropylmethyl)-5-(ethyl(phenyl)amino)-3-((4-(2-methylpyridin-3-yl)phenyl)sulfonyl)pyridine-2,4-diol] | 0.01 to 10 | – |
| CCN(c1ccccc1)c1c(CC2CC2)nc(O)c(S(=O)(=O)c2ccc(-c3ccncc3C)cc2)c1O [Example 052, 6-(cyclopropylmethyl)-5-(ethyl(phenyl)amino)-3-((4-(3-methylpyridin-4-yl)phenyl)sulfonyl)pyridine-2,4-diol] | 0.01 to 10 | – |
| CCN(c1ccccc1)c1c(CC2CC2)nc(O)c(C(=O)N2CCC(c3ncc(F)cc3F)C2)c1O (centres unmarked) [Example 053, (6-(cyclopropylmethyl)-5-(ethyl(phenyl)amino)-2,4-dihydroxypyridin-3-yl)(3-(3,5-difluoropyridin-2-yl)pyrrolidin-1-yl)methanone] | – | 10 to 100 |
| CCCCc1nc(O)c(S(=O)(=O)c2ccc(-c3ccccc3C(=O)N(C)C)cc2)c(O)c1N1CCCc2ccccc21 [Example 054, 4′-((6-butyl-5-(3,4-dihydroquinolin-1(2H)-yl)-2,4-dihydroxypyridin-3-yl)sulfonyl)-N,N-dimethyl-[1,1′-biphenyl]-2-carboxamide] | 10 to 100 | – |
| CCN(c1ccccc1)c1c(CC2CC2)nc(O)c(S(=O)(=O)c2ccc(-c3ccccc3C(=O)NC)cc2)c1O [Example 055, 4′-((6-(cyclopropylmethyl)-5-(ethyl(phenyl)amino)-2,4-dihydroxypyridin-3-yl)sulfonyl)-N-methyl-[1,1′-biphenyl]-2-carboxamide] | 0.01 to 10 | – |

Now from value to compound, other results behind:

| EC50 [1] [nM] | SMILES | EC50 (hAPJ cAMP EC50 Potency range) [nM] |
| --- | --- | --- |
| 0.01 to 10 | CCCCc1nc(O)c(S(=O)(=O)c2ccc(-c3ccncc3C)cc2)c(O)c1N(c1ccccc1)C(C)C [Example 027, 6-butyl-5-(isopropyl(phenyl)amino)-3-((4-(3-methylpyridin-4-yl)phenyl)sulfonyl)pyridine-2,4-diol] | – |
| 10 to 100 | CCCCc1nc(O)c(S(=O)(=O)c2ccc(-c3ccc(F)nc3C)cc2)c(O)c1N(C)c1ccc(OC)cc1 [Example 032, 6-butyl-3-((4-(6-fluoro-2-methylpyridin-3-yl)phenyl)sulfonyl)-5-((4-methoxyphenyl)(methyl)amino)pyridine-2,4-diol] | – |
| 10 to 100 | CCCCc1nc(O)c(S(=O)(=O)c2ccc(-c3cccnc3C)cc2)c(O)c1N(C)c1ccc(OC)cc1 [Example 035, 6-butyl-5-((4-methoxyphenyl)(methyl)amino)-3-((4-(2-methylpyridin-3-yl)phenyl)sulfonyl)pyridine-2,4-diol] | – |
| 0.01 to 10 | CCCCc1nc(O)c(S(=O)(=O)c2ccc(-c3ccnc(F)c3C)cc2)c(O)c1N(C)c1ccc(OC)cc1 [Example 038, 6-butyl-3-((4-(2-fluoro-3-methylpyridin-4-yl)phenyl)sulfonyl)-5-((4-methoxyphenyl)(methyl)amino)pyridine-2,4-diol] | – |
| 0.01 to 10 | CCCCc1nc(O)c(S(=O)(=O)c2ccc(-c3cccnc3C)cc2)c(O)c1N(C)c1cccc(OC)c1 [Example 039, 6-butyl-5-((3-methoxyphenyl)(methyl)amino)-3-((4-(2-methylpyridin-3-yl)phenyl)sulfonyl)pyridine-2,4-diol] | – |
| 10 to 100 | CCCCc1nc(O)c(S(=O)(=O)c2ccc(-c3cccnc3C)cc2)c(O)c1N1CCC(C)c2ccccc21 (centres unmarked) [Example 042] | – |
| 0.01 to 10 | CCCCc1nc(O)c(S(=O)(=O)c2ccc(-c3ccnc(F)c3C)cc2)c(O)c1N1CCC(C)c2ccccc21 (centres unmarked) [Example 044, 6-butyl-3-((4-(2-fluoro-3-methylpyridin-4-yl)phenyl)sulfonyl)-5-(4-methyl-3,4-dihydroquinolin-1(2H)-yl)pyridine-2,4-diol] | – |
| 0.01 to 10 | CCCCc1nc(O)c(C(=O)N2CC[C@@H](c3ccccc3)C2)c(O)c1N1CCC(C)c2ccccc21 (stereo partly drawn) [Example 045, (6-butyl-2,4-dihydroxy-5-(4-methyl-3,4-dihydroquinolin-1(2H)-yl)pyridin-3-yl)((S)-3-phenylpyrrolidin-1-yl)methanone] | – |
| 0.01 to 10 | CCCCc1nc(O)c(S(=O)(=O)c2ccc(-c3ccc(F)nc3C)cc2)c(O)c1N1c2ccccc2CCC1C (centres unmarked) [Example 048, 6-butyl-3-((4-(6-fluoro-2-methylpyridin-3-yl)phenyl)sulfonyl)-5-(2-methyl-3,4-dihydroquinolin-1(2H)-yl)pyridine-2,4-diol] | – |
| 0.01 to 10 | CCN(c1ccccc1)c1c(CC2CC2)nc(O)c(S(=O)(=O)c2ccc(-c3ccnc(F)c3C)cc2)c1O [Example 049, 6-(cyclopropylmethyl)-5-(ethyl(phenyl)amino)-3-((4-(2-fluoro-3-methylpyridin-4-yl)phenyl)sulfonyl)pyridine-2,4-diol] | – |
| 0.01 to 10 | CCN(c1ccccc1)c1c(CC2CC2)nc(O)c(S(=O)(=O)c2ccc(-c3ccc(F)nc3C)cc2)c1O [Example 051, 6-(cyclopropylmethyl)-5-(ethyl(phenyl)amino)-3-((4-(6-fluoro-2-methylpyridin-3-yl)phenyl)sulfonyl)pyridine-2,4-diol] | – |
